Test results published in ChEMBL document CHEMBL6114969, “Ultra-short lipopeptides containing d-amino acid exhibiting excellent stability and antibacterial activity against gram-positive bacteria” (Eur J Med Chem, 2025).
In brackets after ≈: the same amount, converted by molar mass. Activity calls are given as the source filed them. The rule behind the calls is not given here. Where a SMILES comes first, the peptide text is derived from it. Bridges are numbered along the chain shown (N, C = ends). [ ]: non-standard residue; d: D form. The star is where a group is joined. X1 = CC[C@H](C)CCCCC(=O)*; Dab = NCC[C@H](N)C(=O)O

Experiments:
Staphylococcus aureus [1] = experiment: Antibacterial activity against methicillin-resistant Staphylococcus aureus ATCC 33591 assessed as fold change in MIC incubated for 18 to 24 hrs in presence of 10 percent mouse serum by broth microdilution method; format: functional; conditions: time 18-24 hrs
Staphylococcus aureus [2] = experiment: Antibacterial activity against Staphylococcus aureus ATCC 25923 incubated for 18 to 24 hrs by broth microdilution method; format: functional; conditions: time 18-24 hrs
Staphylococcus aureus [3] = experiment: Antibacterial activity against methicillin-resistant Staphylococcus aureus ATCC 33591 assessed as fold change in MIC incubated for 18 to 24 hrs in presence of MgCl2 by broth microdilution method; format: functional; conditions: time 18-24 hrs
Staphylococcus aureus [4] = experiment: Antibacterial activity against methicillin-resistant Staphylococcus aureus ATCC 33591 incubated for 18 to 24 hrs in presence of 1 mg/ml of trypsin by broth microdilution method; format: functional; conditions: time 18-24 hrs
[5] = test system: Staphylococcus epidermidis; experiment: Antibacterial activity against Staphylococcus epidermidis ATCC 12228 incubated for 18 to 24 hrs by broth microdilution method; format: functional; conditions: time 18-24 hrs
Staphylococcus aureus [6] = experiment: Antibacterial activity against methicillin-resistant Staphylococcus aureus ATCC 33591 incubated for 18 to 24 hrs in presence of 0.5 mg/ml of pepsin by broth microdilution method; format: functional; conditions: time 18-24 hrs
Staphylococcus aureus [7] = experiment: Antibacterial activity against methicillin-resistant Staphylococcus aureus ATCC 33591 incubated for 18 to 24 hrs in presence of 2 mg/ml of pepsin by broth microdilution method; format: functional; conditions: time 18-24 hrs
[8] = Retention time of compound by RP-HPLC analysis; format: physicochemical
Staphylococcus aureus [9] = experiment: Antibacterial activity against methicillin-resistant Staphylococcus aureus ATCC 33591 incubated for 18 to 24 hrs in presence of 0.5 mg/ml of chymotrypsin by broth microdilution method; format: functional; conditions: time 18-24 hrs
Staphylococcus aureus [10] = experiment: Antibacterial activity against methicillin-resistant Staphylococcus aureus ATCC 33591 incubated for 18 to 24 hrs in presence of 1 mg/ml of chymotrypsin by broth microdilution method; format: functional; conditions: time 18-24 hrs
Enterococcus faecalis = experiment: Antibacterial activity against Enterococcus faecalis ATCC 29212 incubated for 18 to 24 hrs by broth microdilution method; format: functional; conditions: time 18-24 hrs
Staphylococcus aureus [11] = experiment: Antibacterial activity against Staphylococcus aureus ATCC 29213 incubated for 18 to 24 hrs by broth microdilution method; format: functional; conditions: time 18-24 hrs
Staphylococcus aureus [12] = experiment: Antibacterial activity against methicillin-resistant Staphylococcus aureus ATCC 33591 incubated for 18 to 24 hrs in presence of 0.5 mg/ml of trypsin by broth microdilution method; format: functional; conditions: time 18-24 hrs
Staphylococcus aureus [13] = experiment: Antibacterial activity against methicillin-resistant Staphylococcus aureus ATCC 33591 incubated for 18 to 24 hrs by broth microdilution method; format: functional; conditions: time 18-24 hrs
[14] = Hemolytic activity in mouse Red blood cells incubated for 1 hr by absorbance based analysis; format: toxicity, cell-based; conditions: erythrocyte
Staphylococcus aureus [15] = experiment: Antibacterial activity against methicillin-resistant Staphylococcus aureus ATCC 33591 incubated for 18 to 24 hrs in presence of 2 mg/ml of chymotrypsin by broth microdilution method; format: functional; conditions: time 18-24 hrs
Staphylococcus aureus [16] = experiment: Antibacterial activity against methicillin-resistant Staphylococcus aureus ATCC 33591 incubated for 18 to 24 hrs in presence of 1 mg/ml of pepsin by broth microdilution method; format: functional; conditions: time 18-24 hrs
Staphylococcus aureus [17] = experiment: Antibacterial activity against methicillin-resistant Staphylococcus aureus ATCC 33591 assessed as fold change in MIC incubated for 18 to 24 hrs in presence of 10 percent FBS by broth microdilution method; format: functional; conditions: time 18-24 hrs
Staphylococcus aureus [18] = experiment: Antibacterial activity against methicillin-resistant Staphylococcus aureus ATCC 33591 incubated for 18 to 24 hrs in presence of 2 mg/ml of trypsin by broth microdilution method; format: functional; conditions: time 18-24 hrs
Staphylococcus aureus [19] = experiment: Antibacterial activity against methicillin-resistant Staphylococcus aureus ATCC 33591 assessed as fold change in MIC incubated for 18 to 24 hrs in presence of NaCl by broth microdilution method; format: functional; conditions: time 18-24 hrs
Staphylococcus aureus [20] = experiment: Antibacterial activity against ciprofloxacin-resistant methicillin-resistant Staphylococcus aureus ATCC 33591 incubated for 18 to 24 hrs; format: functional; conditions: time 18-24 hrs
Staphylococcus aureus [21] = experiment: Antibacterial activity against polymyxin B-resistant Staphylococcus aureus ATCC 25923 incubated for 18 to 24 hrs; format: functional; conditions: time 18-24 hrs
Staphylococcus aureus [22] = experiment: Antibacterial activity against gentamicin-resistant Staphylococcus aureus ATCC 25923 incubated for 18 to 24 hrs; format: functional; conditions: time 18-24 hrs
Staphylococcus aureus [23] = experiment: Antibacterial activity against drug-resistant methicillin-resistant Staphylococcus aureus ATCC 33591 incubated for 18 to 24 hrs; format: functional; conditions: time 18-24 hrs
Staphylococcus aureus [24] = experiment: Antibacterial activity against ciprofloxacin-resistant Staphylococcus aureus ATCC 25923 incubated for 18 to 24 hrs; format: functional; conditions: time 18-24 hrs
Staphylococcus aureus [25] = experiment: Induction of drug resistance in Staphylococcus aureus ATCC 25923 at sub-MIC measured after 2 passages; format: functional, organism-based
Staphylococcus aureus [26] = experiment: Antibacterial activity against polymyxin B-resistant methicillin-resistant Staphylococcus aureus ATCC 33591 incubated for 18 to 24 hrs; format: functional; conditions: time 18-24 hrs
Staphylococcus aureus [27] = experiment: Antibacterial activity against drug-resistant Staphylococcus aureus ATCC 25923 incubated for 18 to 24 hrs; format: functional; conditions: time 18-24 hrs
Staphylococcus aureus [28] = experiment: Antibacterial activity against gentamicin-resistant methicillin-resistant Staphylococcus aureus ATCC 33591 incubated for 18 to 24 hrs; format: functional; conditions: time 18-24 hrs
[29] = Stability in mouse serum assessed as compound degradation measured upto 96 hrs by RP-HPLC analysis; format: ADME, cell-free; conditions: read-out: Drug degradation
[30] = Stability in mouse serum assessed as half life measured upto 96 hrs by RP-HPLC analysis; format: ADME, cell-free
Staphylococcus aureus [31] = experiment: Antibacterial activity against methicillin-resistant Staphylococcus aureus ATCC 33591 infected in Balb/c mouse model of skin wound infection assessed as crusted back wound at 10 mg/kg, ip administered thrice at 1, 24 and 48 hrs post-infection measured after 9 days relative to control; format: functional; conditions: time 9 day
Staphylococcus aureus [32] = experiment: Antibacterial activity against methicillin-resistant Staphylococcus aureus ATCC 33591 infected in Balb/c mouse model of skin wound infection assessed as wound heal at 10 mg/kg, ip administered thrice at 1, 24 and 48 hrs post-infection measured after 14 days relative to control; format: functional; conditions: time 14 day

Compound	fold change (FC) (Staphylococcus aureus [1])	MIC (Staphylococcus aureus [2])	fold change (FC) (Staphylococcus aureus [3])	MIC (Staphylococcus aureus [4])	MIC [5]	MIC (Staphylococcus aureus [6])	MIC (Staphylococcus aureus [7])	Retention_time [8]	MIC (Staphylococcus aureus [9])	MIC (Staphylococcus aureus [10])	MIC (Enterococcus faecalis)	MIC (Staphylococcus aureus [11])	MIC (Staphylococcus aureus [12])	MIC (Staphylococcus aureus [13])	HC10 [14]	MIC (Staphylococcus aureus [15])	MIC (Staphylococcus aureus [16])	fold change (FC) (Staphylococcus aureus [17])	MIC (Staphylococcus aureus [18])	fold change (FC) (Staphylococcus aureus [19])	further results
CCCCCCCCCCCC(=O)N[C@H](CCCNC(=N)N)C(=O)N[C@@H](CCCNC(=N)N)C(=O)N[C@@H](Cc1c[nH]c2ccccc12)C(=O)O	4	4 µM (≈ 2.8 µg/mL)	<3	64 µM	2 µM (≈ 1.4 µg/mL)	8 µM	32 µM	19.259 min	16 µM	32 µM	8 µM (≈ 5.59 µg/mL)	4 µM (≈ 2.8 µg/mL)	64 µM	4 µM (≈ 2.8 µg/mL)	64 µM	128 µM	16 µM	8	128 µM	<3	
O=C(O)c1cn(C2CC2)c2cc(N3CCNCC3)c(F)cc2c1=O [CIPROFLOXACIN]		1 µM (≈ 0.331 µg/mL)			≤ 0.5 µM						2 µM (≈ 0.663 µg/mL)	1 µM (≈ 0.331 µg/mL)		256 µM (≈ 84.8 µg/mL)							MIC (Staphylococcus aureus [20]): 8190 µM (≈ 2710 µg/mL); MIC (Staphylococcus aureus [21]): > 128 µM; MIC (Staphylococcus aureus [22]): 128 µM (≈ 42.4 µg/mL); MIC (Staphylococcus aureus [23]): > 128 µM; MIC (Staphylococcus aureus [24]): 8190 µM (≈ 2710 µg/mL); Activity (Staphylococcus aureus [25]): Active; MIC (Staphylococcus aureus [26]): > 128 µM; MIC (Staphylococcus aureus [27]): > 128 µM; MIC (Staphylococcus aureus [28]): 128 µM (≈ 42.4 µg/mL)
CCCCCCCCCCCC(=O)N[C@@H](CCCNC(=N)N)C(=O)N[C@@H](CCCNC(=N)N)C(=O)N[C@@H](Cc1c[nH]c2ccccc12)C(=O)O	4	4 µM (≈ 2.8 µg/mL)	<3	> 128 µM	2 µM (≈ 1.4 µg/mL)	16 µM	64 µM	18.643 min	> 128 µM	> 128 µM	8 µM (≈ 5.59 µg/mL)	4 µM (≈ 2.8 µg/mL)	> 128 µM	4 µM (≈ 2.8 µg/mL)	128 µM	> 128 µM	32 µM	8	> 128 µM	<3	metabolised at 96 h [29]: ~100%; half-life [30]: 17.4 h
CCCCCCCCCCCC(=O)N[C@H](CCCNC(=N)N)C(=O)N[C@H](CCCNC(=N)N)C(=O)N[C@@H](Cc1c[nH]c2ccccc12)C(=O)O	8	4 µM (≈ 2.8 µg/mL)	<3	32 µM	2 µM (≈ 1.4 µg/mL)	4 µM	32 µM	18.527 min	32 µM	64 µM	8 µM (≈ 5.59 µg/mL)	4 µM (≈ 2.8 µg/mL)	32 µM	4 µM (≈ 2.8 µg/mL)	128 µM	64 µM	8 µM	8	64 µM	<3	
CC(C)CCCCC(=O)N[C@@H](CCN)C(=O)N[C@H](C(=O)N[C@@H](CCN)C(=O)N[C@H]1CCNC(=O)[C@H]([C@@H](C)O)NC(=O)[C@H](CCN)NC(=O)[C@H](CCN)NC(=O)[C@H](CC(C)C)NC(=O)[C@@H](Cc2ccccc2)NC(=O)[C@H](CCN)NC1=O)[C@@H](C)O.CC[C@H](C)CCCCC(=O)N[C@@H](CCN)C(=O)N[C@H](C(=O)N[C@@H](CCN)C(=O)N[C@H]1CCNC(=O)[C@H]([C@@H](C)O)NC(=O)[C@H](CCN)NC(=O)[C@H](CCN)NC(=O)[C@H](CC(C)C)NC(=O)[C@@H](Cc2ccccc2)NC(=O)[C@H](CCN)NC1=O)[C@@H](C)O (X1-[Dab]T[Dab][Dab][Dab][dF]L[Dab][Dab]T; lactam 4-C)		4 µM			2 µM						128 µM	4 µM		16 µM							MIC (Staphylococcus aureus [20]): 4 µM; MIC (Staphylococcus aureus [21]): 512 µM; MIC (Staphylococcus aureus [22]): > 128 µM; Activity (Staphylococcus aureus [31]): 100%; MIC (Staphylococcus aureus [23]): 128 µM; MIC (Staphylococcus aureus [24]): 128 µM; Activity (Staphylococcus aureus [32]): 100%; MIC (Staphylococcus aureus [26]): 2050 µM; MIC (Staphylococcus aureus [27]): > 128 µM; MIC (Staphylococcus aureus [28]): 128 µM
